Results published in ChEMBL document CHEMBL5360558, “Molecular design, synthesis and anticancer activity of new thiopyrano[2,3-d]thiazoles based on 5-hydroxy-1,4-naphthoquinone (juglone)” (Eur J Med Chem, 2023).

system: not listed separately; experiment: GSH reactivity of compound at pH 7.4 phosphate buffer assessed as GSH-adduct formation at 1 mM incubated for 1 hr in presence of sodium borohydride by spectrophotometric analysis; format: physicochemical; settings: pH 7.4, 1 h, 1000 µM

SMILES	Activity
O=C1NC(=S)/C(=C/c2ccco2)S1	Active
O=C1C=CC(=O)c2c(O)cccc21 [JUGLONE]	Active

system: SK-MEL-5; experiment: Anticancer activity against human SK-MEL-5 cells assessed as cell growth at 10 uM incubated for 48 hrs by sulforhodamine B assay; format: functional; settings: read-out: Activity

SMILES	growth at 10 µM [%]
COc1cccc2c1C(=O)c1c(O)c3c(c(O)c1C2=O)C[C@@](O)(C(=O)CO)C[C@@H]3O[C@H]1C[C@H](N)[C@H](O)[C@H](C)O1 [DOXORUBICIN]	-86.4

system: not listed separately; experiment: Antileukemic activity against human CLL cell assessed as cell growth inhibition incubated for 72 hrs in presence of BST by MTT assay; format: functional, cell-based; settings: not given

SMILES	IC50 [µM]
COc1cccc2c1C(=O)c1c(O)c3c(c(O)c1C2=O)C[C@@](O)(C(=O)CO)C[C@@H]3O[C@H]1C[C@H](N)[C@H](O)[C@H](C)O1 [DOXORUBICIN]	8.6

system: not listed separately; experiment: GSH reactivity of compound at pH 7.4 phosphate buffer assessed as GSH-adduct formation at 1 mM incubated for 1 hr by spectrophotometric analysis; format: physicochemical; settings: pH 7.4, 1 h, 1000 µM

SMILES	Activity
O=C1NC(=S)/C(=C/c2ccco2)S1	Active
O=C1C=CC(=O)c2c(O)cccc21 [JUGLONE]	Active

system: not listed separately; experiment: Acute toxicity in C57BL/6 mouse assessed as decrease in body mass at 20 mg/kg,ip administration observed after 6 days; format: organism-based; settings: in vivo, 144 h, time 6 day

SMILES	Activity
COc1cccc2c1C(=O)c1c(O)c3c(c(O)c1C2=O)C[C@@](O)(C(=O)CO)C[C@@H]3O[C@H]1C[C@H](N)[C@H](O)[C@H](C)O1 [DOXORUBICIN]	Toxic

system: not listed separately; experiment: Cytotoxicity against human Lymphocyte cells assessed as cell growth inhibition incubated for 72 hrs by MTT assay; format: toxicity, cell-based; settings: lymphocytes

SMILES	IC50 at 72 h [µM]
COc1cccc2c1C(=O)c1c(O)c3c(c(O)c1C2=O)C[C@@](O)(C(=O)CO)C[C@@H]3O[C@H]1C[C@H](N)[C@H](O)[C@H](C)O1 [DOXORUBICIN]	10

system: not listed separately; experiment: Acute toxicity in C57BL/6 mouse assessed as neutrophil count at 20 mg/kg,ip administration and observed after 22 days; format: organism-based; settings: in vivo, 528 h, time 22 day

SMILES	Activity [%]
COc1cccc2c1C(=O)c1c(O)c3c(c(O)c1C2=O)C[C@@](O)(C(=O)CO)C[C@@H]3O[C@H]1C[C@H](N)[C@H](O)[C@H](C)O1 [DOXORUBICIN]	45.05

system: not listed separately; experiment: Acute toxicity in C57BL/6 mouse assessed as anemia at 20 mg/kg,ip administration observed after 22 days; format: organism-based; settings: in vivo, 528 h, time 22 day

SMILES	Activity
COc1cccc2c1C(=O)c1c(O)c3c(c(O)c1C2=O)C[C@@](O)(C(=O)CO)C[C@@H]3O[C@H]1C[C@H](N)[C@H](O)[C@H](C)O1 [DOXORUBICIN]	Toxic

system: not listed separately; experiment: Cytotoxicity against human HCT116-p53-null cells assessed as cell growth inhibition incubated for 72 hrs by MTT assay; format: functional, cell-based; settings: not given

SMILES	IC50 [µM]
COc1cccc2c1C(=O)c1c(O)c3c(c(O)c1C2=O)C[C@@](O)(C(=O)CO)C[C@@H]3O[C@H]1C[C@H](N)[C@H](O)[C@H](C)O1 [DOXORUBICIN]	0.63

system: A498; experiment: Anticancer activity against human A498 cells assessed as cell growth at 10 uM incubated for 48 hrs by sulforhodamine B assay; format: functional; settings: read-out: Activity

SMILES	growth at 10 µM [%]
COc1cccc2c1C(=O)c1c(O)c3c(c(O)c1C2=O)C[C@@](O)(C(=O)CO)C[C@@H]3O[C@H]1C[C@H](N)[C@H](O)[C@H](C)O1 [DOXORUBICIN]	-75.1

system: not listed separately; experiment: Acute toxicity in C57BL/6 mouse assessed as animal death at 20 mg/kg,ip administration observed after 8 days; format: organism-based; settings: in vivo, 192 h, time 8 day

SMILES	Activity
COc1cccc2c1C(=O)c1c(O)c3c(c(O)c1C2=O)C[C@@](O)(C(=O)CO)C[C@@H]3O[C@H]1C[C@H](N)[C@H](O)[C@H](C)O1 [DOXORUBICIN]	Toxic

system: MDA-MB-435; experiment: Anticancer activity against human MDA-MB-435 cells assessed as cell growth at 10 uM incubated for 48 hrs by sulforhodamine B assay; format: functional; settings: read-out: Activity

SMILES	growth at 10 µM [%]
COc1cccc2c1C(=O)c1c(O)c3c(c(O)c1C2=O)C[C@@](O)(C(=O)CO)C[C@@H]3O[C@H]1C[C@H](N)[C@H](O)[C@H](C)O1 [DOXORUBICIN]	-82.6

system: not listed separately; experiment: Antileukemic activity against human CLL cell assessed as cell growth inhibition incubated for 72 hrs by MTT assay; format: functional, cell-based; settings: not given

SMILES	IC50 [µM]
COc1cccc2c1C(=O)c1c(O)c3c(c(O)c1C2=O)C[C@@](O)(C(=O)CO)C[C@@H]3O[C@H]1C[C@H](N)[C@H](O)[C@H](C)O1 [DOXORUBICIN]	> 10

system: COLO 205; experiment: Anticancer activity against human COLO 205 cells assessed as cell growth at 10 uM incubated for 48 hrs by sulforhodamine B assay; format: functional; settings: read-out: Activity

SMILES	growth at 10 µM [%]
COc1cccc2c1C(=O)c1c(O)c3c(c(O)c1C2=O)C[C@@](O)(C(=O)CO)C[C@@H]3O[C@H]1C[C@H](N)[C@H](O)[C@H](C)O1 [DOXORUBICIN]	-81.6

system: not listed separately; experiment: Cytotoxicity against mouse NIH3T3 cells assessed as cell growth inhibition incubated for 72 hrs by MTT assay; format: toxicity, cell-based; settings: not given

SMILES	IC50 at 72 h [µM]
COc1cccc2c1C(=O)c1c(O)c3c(c(O)c1C2=O)C[C@@](O)(C(=O)CO)C[C@@H]3O[C@H]1C[C@H](N)[C@H](O)[C@H](C)O1 [DOXORUBICIN]	0.72

system: KB 3-1; experiment: Cytotoxicity against human KB 3-1 cells assessed as cell growth inhibition incubated for 72 hrs by MTT assay; format: functional, cell-based; settings: KB 3-1, 72 h

SMILES	IC50 [µM]
COc1cccc2c1C(=O)c1c(O)c3c(c(O)c1C2=O)C[C@@](O)(C(=O)CO)C[C@@H]3O[C@H]1C[C@H](N)[C@H](O)[C@H](C)O1 [DOXORUBICIN]	0.56
O=C1C=CC(=O)c2c(O)cccc21 [JUGLONE]	26.4

system: not listed separately; experiment: Cytotoxicity against mouse J774.2 cells assessed as cell growth inhibition incubated for 72 hrs by MTT assay; format: toxicity, cell-based; settings: not given

SMILES	IC50 at 72 h [µM]
COc1cccc2c1C(=O)c1c(O)c3c(c(O)c1C2=O)C[C@@](O)(C(=O)CO)C[C@@H]3O[C@H]1C[C@H](N)[C@H](O)[C@H](C)O1 [DOXORUBICIN]	0.56
O=C1C=CC(=O)c2c(O)cccc21 [JUGLONE]	13.4

system: SK-MEL-2; experiment: Anticancer activity against human SK-MEL-2 cells assessed as cell growth at 10 uM incubated for 48 hrs by sulforhodamine B assay; format: functional; settings: read-out: Activity

SMILES	growth at 10 µM [%]
COc1cccc2c1C(=O)c1c(O)c3c(c(O)c1C2=O)C[C@@](O)(C(=O)CO)C[C@@H]3O[C@H]1C[C@H](N)[C@H](O)[C@H](C)O1 [DOXORUBICIN]	-82.6

system: not listed separately; experiment: Antileukemic activity against human CLL cell assessed as cell growth inhibition incubated for 72 hrs during remission period by MTT assay; format: functional, cell-based; settings: not given

SMILES	IC50 [µM]
COc1cccc2c1C(=O)c1c(O)c3c(c(O)c1C2=O)C[C@@](O)(C(=O)CO)C[C@@H]3O[C@H]1C[C@H](N)[C@H](O)[C@H](C)O1 [DOXORUBICIN]	7.33

system: not listed separately; experiment: Cytotoxicity against human HaCaT cells assessed as cell growth inhibition incubated for 72 hrs by MTT assay; format: toxicity, cell-based; settings: HaCaT cells

SMILES	IC50 at 72 h [µM]
COc1cccc2c1C(=O)c1c(O)c3c(c(O)c1C2=O)C[C@@](O)(C(=O)CO)C[C@@H]3O[C@H]1C[C@H](N)[C@H](O)[C@H](C)O1 [DOXORUBICIN]	4.56

system: HCT-116; experiment: Cytotoxicity against human HCT-116 cells assessed as cell growth inhibition incubated for 72 hrs by MTT assay; format: functional, cell-based; settings: HCT-116, 72 h

SMILES	IC50 [µM]
COc1cccc2c1C(=O)c1c(O)c3c(c(O)c1C2=O)C[C@@](O)(C(=O)CO)C[C@@H]3O[C@H]1C[C@H](N)[C@H](O)[C@H](C)O1 [DOXORUBICIN]	0.58
O=C1C=CC(=O)c2c(O)cccc21 [JUGLONE]	31.6

system: not listed separately; experiment: Acute toxicity in C57BL/6 mouse assessed as leukopenia at 20 mg/kg,ip administration observed after 22 days; format: organism-based; settings: in vivo, 528 h, time 22 day

SMILES	Activity
COc1cccc2c1C(=O)c1c(O)c3c(c(O)c1C2=O)C[C@@](O)(C(=O)CO)C[C@@H]3O[C@H]1C[C@H](N)[C@H](O)[C@H](C)O1 [DOXORUBICIN]	Toxic

system: K562; experiment: Cytotoxicity against human K562 cells assessed as cell growth inhibition incubated for 72 hrs by MTT assay; format: functional, cell-based; settings: K562, 72 h

SMILES	IC50 [µM]
COc1cccc2c1C(=O)c1c(O)c3c(c(O)c1C2=O)C[C@@](O)(C(=O)CO)C[C@@H]3O[C@H]1C[C@H](N)[C@H](O)[C@H](C)O1 [DOXORUBICIN]	0.59

system: not listed separately; experiment: Acute toxicity in C57BL/6 mouse assessed as decrease in body mass at 6.6 mg/kg,ip administration; format: organism-based; settings: in vivo

SMILES	Activity
COc1cccc2c1C(=O)c1c(O)c3c(c(O)c1C2=O)C[C@@](O)(C(=O)CO)C[C@@H]3O[C@H]1C[C@H](N)[C@H](O)[C@H](C)O1 [DOXORUBICIN]	Toxic

system: M14; experiment: Anticancer activity against human M14 cells assessed as cell growth at 10 uM incubated for 48 hrs by sulforhodamine B assay; format: functional; settings: read-out: Activity

SMILES	growth at 10 µM [%]
COc1cccc2c1C(=O)c1c(O)c3c(c(O)c1C2=O)C[C@@](O)(C(=O)CO)C[C@@H]3O[C@H]1C[C@H](N)[C@H](O)[C@H](C)O1 [DOXORUBICIN]	-71.6

system: SNB-75; experiment: Anticancer activity against human SNB-75 cells assessed as cell growth at 10 uM incubated for 48 hrs by sulforhodamine B assay; format: functional; settings: read-out: Activity

SMILES	growth at 10 µM [%]
COc1cccc2c1C(=O)c1c(O)c3c(c(O)c1C2=O)C[C@@](O)(C(=O)CO)C[C@@H]3O[C@H]1C[C@H](N)[C@H](O)[C@H](C)O1 [DOXORUBICIN]	-76.1

system: not listed separately; experiment: Acute toxicity in C57BL/6 mouse assessed as animal death at 20 mg/kg,ip administration observed after 13 days; format: organism-based; settings: in vivo, 312 h, time 13 day

SMILES	Activity
COc1cccc2c1C(=O)c1c(O)c3c(c(O)c1C2=O)C[C@@](O)(C(=O)CO)C[C@@H]3O[C@H]1C[C@H](N)[C@H](O)[C@H](C)O1 [DOXORUBICIN]	Toxic

system: not listed separately; experiment: Acute toxicity in C57BL/6 mouse assessed as lymphocyte count at 20 mg/kg,ip administration and observed after 22 days; format: organism-based; settings: in vivo, 528 h, time 22 day

SMILES	Activity [%]
COc1cccc2c1C(=O)c1c(O)c3c(c(O)c1C2=O)C[C@@](O)(C(=O)CO)C[C@@H]3O[C@H]1C[C@H](N)[C@H](O)[C@H](C)O1 [DOXORUBICIN]	50.35
